The test system of series [1] is asexual blood stages of Pf NF54 (drug sensitive). Set-up: method as in PMID 29866868, PMID 31998692. The settings on record: asexual blood stage Pf NF54, CQ sensitive; SYBR Green I; ± SEM; cited from earlier work.
The subject of series [2] is asexual blood stages of Pf K1 (drug resistant). Set-up: method as in PMID 29866868, PMID 31998692. The settings on record: cited from earlier work; for IC50: asexual blood stage Pf K1, multidrug resistant, SYBR Green I, ± SEM.
The test system of series [3] is asexual blood stages of Pf W2 (drug resistant). Set-up: method as in PMID 29866868, PMID 31998692. To be noted: cited from earlier work; for IC50: asexual blood stage Pf W2, multidrug resistant, SYBR Green I, ± SEM.
In series [4] the test system is early-stage (EG) Pf NF54 gametocytes. Set-up: method as in PMID 29866868. The settings on record: early-stage gametocytes >95% stages II-III; 48 h incubation; ± SEM; cited from earlier work.
The subject of series [5] is late-stage (LG) Pf NF54 gametocytes. Set-up: method as in PMID 29866868. The settings on record: late-stage gametocytes >90% stages IV-V; 48 h incubation; ± SEM; cited from earlier work.
The conditions of series [6]: single dose 10 mg/kg, healthy Aotus monkeys; cited from earlier work.
For a further series, the system named is W2 (CQ resistant). Set-up: method as in ref S2. The settings on record: [3H]-hypoxanthine assay; ref S2; read-out: Antimalarial activities IC50 W2; cited from earlier work.
The test system of a further series is 7G8 (CQ resistant). Set-up: method as in ref S2. The settings on record: [3H]-hypoxanthine assay; ref S2; read-out: Antimalarial activities IC50 7G8; cited from earlier work.
Series [7] concerns TM93-C1088 (atovaquone and CQ resistant). Set-up: method as in ref S2. The settings on record: [3H]-hypoxanthine assay; ref S2; read-out: Antimalarial activities IC50 TM93-C1088; cited from earlier work.
For series [8], the system named is TM91-C235 (CQ and MFQ resistant). Set-up: method as in ref S2. To be noted: [3H]-hypoxanthine assay; ref S2; read-out: Antimalarial activities IC50 TM91-C235; cited from earlier work.
The next series concerns TM-C2B. Set-up: method as in ref S2. To be noted: [3H]-hypoxanthine assay; ref S2; read-out: Antimalarial activities IC50 TM-C2B; cited from earlier work.
For series [9], the system named is CQ-sensitive P. berghei N strain. To be noted: Peters four-day test, mice, ref S4 (24), cited from earlier work.
Series [10] relates to CQ-resistant P. yoelii NS strain. To be noted: Peters four-day test, mice, subcutaneous; ref S4 (24); cited from earlier work.
A further series concerns Toxoplasma gondii (Tg). Set-up: method as in PMID 19635951. To be noted: read-out: EC50 against Tg in vitro; cited from earlier work.
Series [11] concerns fetal rat brain stem cells. To be noted: cited from earlier work.
For another series, the system named is D6 (CQ sensitive). Set-up: method as in ref S2. The settings on record: [3H]-hypoxanthine assay; ref S2; read-out: Antimalarial activities IC50 D6; cited from earlier work.
In a further series the test system is P. falciparum W2. Set-up: method as in ref S3. To be noted: [3H]-hypoxanthine assay; ref S3; cited from earlier work.
For series [12], the system named is P. falciparum asexual blood stage artemisinin-resistant clone ARC08-22 (4G) carrying the PfKI3 C580Y mutation. Set-up: method as in ref S3. The settings on record: ref S3, cited from earlier work.
The subject of series [13] is P. falciparum asexual blood stage artemisinin-resistant clone PL08-009 (5C) carrying the PfKI3 C580Y mutation. Set-up: method as in ref S3. The settings on record: ref S3, cited from earlier work.
The subject of series [14] is Chinese hamster ovary (CHO) cells. Set-up: method as in PMID 29866868, PMID 31998692. The settings on record: other cell lines including CHO cells; read-out: EC50 cytotoxicity; cited from earlier work.
The test system of series [15] is asexual blood stages of Pf NF54 (drug sensitive). Kind of series: SYBR Green I proliferation assay, asexual blood stages, Pf NF54. Format: cell-based, Plasmodium falciparum. How it is done:
(§1) Dose response curves are in Figures S1a–c and S2a–c in the Supplementary Material 1. Table 1 also includes the historical values for artemiside and artemisone obtained using the same assay.
(§2) All other assay conditions are as previously described. Compound working solutions were prepared from a 10 mM stock solution in 100% (vol/vol) dimethyl sulfoxide (DMSO, Sigma-Aldrich) in supplemented RPMI 1640 medium containing AlbuMAX II with a final DMSO concentration of 0.1% (vol/vol), previously determined to be nontoxic to blood stage asexual parasites and gametocytes. The dose-responses of the amino-artemisinins were assayed using a 2-fold serial drug dilution on in vitro 95% ring-stage parasites at 37 °C under 90% N2, 5% CO2, and 5% O2 atmospheric conditions, detecting SYBR green I fluorescence as the proliferative marker following a 96 h drug treatment (1% parasitemia and 1% hematocrit) using a GloMaxR-Multi+ Detection System (Promega). No drug washout steps were performed during drug incubation periods prior to the assays. Activity against the Pf drug-sensitive NF54 strain and the drug-resistant K1 (resistant to CQ, quinine, pyrimethamine, and cycloguanil) and W2 (resistant to CQ, quinine, pyrimethamine, and cycloguanil) strains was evaluated. Data analysis was performed using GraphPad Prism (version 6), intra-assay variability was monitored with Z-factors, and acceptable interassay reproducibility was determined from the percent coefficient of variation (CV).

The subject of series [16] is asexual blood stages of Pf K1 (drug resistant). Kind of series: SYBR Green I proliferation assay, asexual blood stages, Pf K1. Format: cell-based, Plasmodium falciparum. The protocol:
as §1, §2

The subject of series [17] is asexual blood stages of Pf W2 (drug resistant). Kind of series: SYBR Green I proliferation assay, asexual blood stages, Pf W2. Format: cell-based, Plasmodium falciparum. How it is done:
as §1, §2

Series [18] can be described thus: Cytotoxicity (LDH assay) against HepG2 cells. Format: cell-based. To be noted: human, HepG2 cells (hepatocellular carcinoma). How it is done:
Cytotoxicity against mammalian hepatocellular carcinoma cells (HepG2 cells) was determined using the lactate dehydrogenase assay (LDH, Biovision Inc., Milpitas, CA, USA). […] Compound working solutions were prepared from 10 mM stock solutions (100% DMSO) in complete DMEM to a final DMSO (Sigma-Aldrich) conc. of <0.1% (vol/vol). […] Data analysis was performed using GraphPad Prism (version 6) software.

Series [19] concerns early-stage (EG) Pf NF54 gametocytes. Kind of series: Luciferase assay, early-stage gametocytes. Format: cell-based, Plasmodium falciparum. To be noted: Plasmodium falciparum, NF54, 48 h, early-stage gametocytes >95% stages II-III; 48 h incubation; ± SEM. How it is done: (§3) For screening artemisox and M1 against early- (EG) and late-stage (LG) gametocytes, the luciferase assay with transgenic NF54-pfs16-GFP-Luc and NF54-Mal8p1.16-GFP-Luc parasite lines was used. With this assay, stage-specificity of gametocytocidal action was established (Table 2). Dose-response curves are in Figures S1d,e and S2d in the Supplementary Material 1. […] As was observed previously for artemisone and artemiside, dose responses for artemisox and M1 could not be obtained at 48 h against late-stage gametocytes.
(§4) The same reference compounds with the exception of CQ were used for the early- and late-stage gametocyte assays. Gametocytocidal activity was determined using the transgenic NF54-pfs16-GFP-Luc and NF54-Mal8p1.16-GFP-Luc reporter lines. Compounds were initially screened for activity at a fixed drug concentration of 1 µM, with dose responses subsequently determined using 2-fold serial drug dilutions for 48 h against early-stage gametocytes (day 5 post-induction population, ≥95% stages II–III) and 10-fold serial drug dilutions for 48 h or 72 h against late-stage gametocytes (day 10 post-induction population, ≥90% late-stage [stages IV–V]) (2 to 3% gametocytemia, 2% hematocrit) at 37 °C under 90% N2, 5% CO2, and 5% O2 [6]. No drug washout steps were performed during the drug incubation periods prior to the assays. In all cases, an interference assay was run in parallel to eliminate the possibility of false positives arising through compound interference with the luciferase readout.

Series [20] concerns late-stage (LG) Pf NF54 gametocytes. Kind of series: Luciferase assay, late-stage gametocytes. Format: cell-based, Plasmodium falciparum. To be noted: fixed dose of 1 µM, 48 h incubation. How it is done: as §3, §4
On the set-up of series [21]: method as in PMID 34097488. The settings on record: cited from earlier work.
Where [22] appears, read: effect on the cytoskeleton on day 7, ref S4 (24).

Where two headings read alike, the source gives them in different places.

As to `C[C@H]1[C@H](OC(=O)CCC(=O)O)O[C@@H]2O[C@@]3(C)CC[C@H]4[C@H](C)CC[C@@H]1[C@@]24OO3` [Artesunate 4, Artesunate], the IC50 is 3 ± 0.29 nM in series [1]; 4 ± 1 nM in series [2]; 2.4 ± 0.4 nM in series [3]; 62.8 ± 3 nM in series [4]; 259 ± 80 nM in series [5]; 3 ± 1.6 nM in the series on W2 (CQ resistant). Further, the IC50 with 7G8 (CQ resistant) is 1.5 ± 0.2 nM; in series [7] it was 1.4 ± 0.1 nM; in series [8], 2.9 ± 1.4 nM; in the series on TM-C2B it was 2.5 ± 0.5 nM. Also, the “ex vivo antimalarial activity observable up to (post dose)” value in series [6] was “up to 1 h”. Also, in series [9] (oral daily day 0-3), the “P. berghei ED90 po” value is 7.1 mg/kg. Besides, the “P. berghei ED90 sc” value in [9] (subcutaneous daily day 0-3) was 7.2 mg/kg. In [10], the “P. yoelii ED90 sc” value is listed as 22.0 mg/kg. For the same molecule, the EC50 in the series with Toxoplasma gondii (Tg) was 213 nM. Also, the “Viability NOEC” value in [11] is listed as 0.1 µg/mL. For the same molecule, the “Neurofilaments IC50” value in series [11] (setting [22]) is given as 5.0 µg/mL.

On to `C[C@H]1[C@@H](O)O[C@@H]2O[C@@]3(C)CC[C@H]4[C@H](C)CC[C@@H]1[C@@]24OO3` [DHA 2, Dihydroartemisinin], for which the IC50 is 2.51 ± 0.19 nM in [1]; 1.51 ± 0.33 nM in [2]; 1.74 ± 0.22 nM in series [3]; 43 ± 3.9 nM in series [4]; 33.7 ± 1.98 nM in series [5]; 1.7 ± 0.4 nM in the series with D6 (CQ sensitive). In addition, the IC50 in the series with W2 (CQ resistant) was 2.2 ± 0.8 nM; in the series with 7G8 (CQ resistant), 1.3 ± 0.2 nM; in series [7] it was 1.4 ± 0.4 nM; in series [8], 2.3 ± 0.7 nM; with TM-C2B, 2 ± 0.7 nM; in the series on P. falciparum W2, 4.58 nM. Moreover, the IC50 in series [12] (48 h life cycle, PfKI3 C580Y) was 6.68 nM; in series [13] (36 h life cycle, PfKI3 C580Y), 6.41 nM. In addition, in series [2], the “RI (resistance index) = IC50 K1/IC50 NF54” value is listed as 0.6. In series [3], the “RI = IC50 W2/IC50 NF54” value is on record as 0.7. Besides, the IC90 in the series with P. falciparum W2 was 10.3 nM; in series [12] (48 h life cycle, PfKI3 C580Y), 15.4 nM; in [13] (36 h life cycle, PfKI3 C580Y), 10.7 nM. Further, in series [12], the “RI = IC50 for ARC08-22(4G)/IC50 for W2” value is reported as 1.5. The “RI = IC50 for PL08-09 (5C)/IC50 for W2” value in series [13] is given as 1.4. Further, the concentration giving a half-maximal response (EC50) in series [14] is 25200 nM. In addition, in series [11] (ATP levels 1 day after initial administration, ref S4 (24)), the “ATP IC50” value is 0.08 µg/mL. Further, the “Neurofilaments IC50” value in [11] (setting [22]) was 0.01 µg/mL. In [11] (setting [22]), the “Neurofilaments NOEC” value is recorded as less than 0.001 µg/mL. Also, the “Viability IC50” value in [11] (neuron-specific enolase activity, 7 days exposure, ref S4 (24)) was 5.0 µg/mL.

As for `C[C@H]1[C@H](N2C=CS(=O)(=O)CC2)O[C@@H]2O[C@@]3(C)CC[C@H]4[C@H](C)CC[C@@H]1[C@@]24OO3` [M1 8, M1], the IC50 was 2.63 ± 0.24 nM in series [15] (Plasmodium falciparum, NF54, 96 h, asexual blood stage Pf NF54, CQ sensitive, SYBR Green I, 96 h, ± SEM, read-out: IC50 NF54); approximately 2 nM in series [15] (Plasmodium falciparum, NF54, summary over NF54, K1 and W2 strains, read-out: IC50 against asexual Pf blood stage parasites); 1.5 to 2.6 nM in [15] (summary over NF54, K1 and W2 strains, read-out: IC50 against asexual Pf blood stage parasites); 1.5 ± 0.23 nM in series [16] (Plasmodium falciparum, asexual blood stage Pf K1, multidrug resistant, SYBR Green I, 96 h, ± SEM); 2.26 ± 0.08 nM in series [17] (Plasmodium falciparum, asexual blood stage Pf W2, multidrug resistant, SYBR Green I, 96 h, ± SEM); 13.4 ± 2.7 nM in series [19]. Further, the IC50 is 4.7 ± 0.2 nM in the series on D6 (CQ sensitive); 6.6 ± 0.4 nM in the series with W2 (CQ resistant); 2.6 ± 0.8 nM in the series on 7G8 (CQ resistant); 2.5 ± 0.4 nM in [7]; 5 ± 0.6 nM in [8]; 8.6 ± 8.2 nM with TM-C2B. In series [16], the “RI (resistance index) = IC50 K1/IC50 NF54” value worked out at 0.57. Further, in [17], the “RI = IC50 W2/IC50 NF54” value came out at 0.86. The IC50 at 24 h in [18] is more than 50000 nM. Besides, in series [20], the “inhibition of LG viability” value is recorded as more than 90%. In addition, the results for the “fold greater human microsomal half-life than artemisone” value in series [21] and in series [21] (listed as M1) were more than 15 fold and not below 15 fold, respectively.

The term IC50 denotes the concentration needed to halve the response being measured. In general, EC50 refers to the concentration that produces a half-maximal response. What is called IC90 is the point of the concentration-response curve where the effect stands at 90%.
